Active and inactive are the calls of the source. The calls are words filed in the database; no cut-off is given here.

Data set [1] can be described thus: Inhibition of keratin-10 expression in human PHK160b cells at 50 uM incubated for 48 hrs by quantitative RT-PCR analysis relative to untreated control. The format is functional.
Data set [2] is described as follows: (§1) Induction of keratin-10 expression in human PHK160b cells at 50 uM incubated for 48 hrs by quantitative RT-PCR analysis relative to untreated control. The format is functional.
The species entered for data set [3] is Homo sapiens. The data set is described as §1. The format is functional.
Data set [4] can be described thus: Cytotoxicity against human PHK160b cells assessed as reduction in cell growth at 100 uM incubated up to 96 hrs by MTT assay. The format is cell-based.
The nature of data set [5]: Cytotoxicity against human PHK160b cells assessed as reduction in cell viability incubated for 48 hrs by LDH release assay. The format is cell-based. Background: LDH in the medium is a marker of cell lysis.
Data set [6] in a line: Induction of apoptosis in human PHK160b cells assessed as induction of multiple fragmented segregated bodies at 100 uM incubated for 48 hrs Hoechst 33,342 staining based fluorescent microscopy. The format is cell-based.
Data set [7] in a line: Cell cycle arrest in human PHK160b cells assessed as accumulation at G0/G1 phase at 50 uM incubated for 48 hrs by propidium iodide staining-based flow cytometry. The format is functional. For orientation: A flow cytometer gives signals particle by particle.
Data set [8] in a line: Cell cycle arrest in human PHK160b cells assessed as accumulation at G2/M phase at 50 uM incubated for 48 hrs by propidium iodide staining-based flow cytometry. The format is functional.
For data set [9], the species on record is Homo sapiens. Kind of data set: Induction of keratin-10 expression in human PHK160b cells incubated for 48 hrs by quantitative RT-PCR analysis relative to untreated control. The format is functional, cell-based.
For data set [10], the species on record is Homo sapiens. Kind of data set: Induction of keratin-1 expression in human PHK160b cells incubated for 48 hrs by quantitative RT-PCR analysis relative to untreated control. The format is functional, cell-based.
The subject of data set [11] is Zone of skin. Kind of data set: Induction of keratinocyte differentiation in human EPI-212 EpiDerm skin model assessed as increase in keratin-10 expression at 100 uM incubated for 7 days by DAB based immunohistochemical staining analysis (Rvb= 35.8%). The format is functional.
The test system of data set [12] is Zone of skin. Kind of data set: Induction of keratinocyte differentiation in human EPI-212 EpiDerm skin model assessed as increase in filaggrin expression at 100 uM incubated for 7 days by DAB based immunohistochemical staining analysis (Rvb= 20%). The format is functional.
Data set [13] in a line: Cytotoxicity against human PHK160b cells assessed as reduction in cell viability at 100 uM incubated for 24 hrs by MTT assay. The format is cell-based. On the technique in general: Formazan colour is commonly taken as a measure of viable cells.
Data set [14] in a line: Cytotoxicity against human PHK160b cells assessed as reduction in cell viability at 10 to 1000 uM incubated for 48 hrs by LDH release assay. The format is cell-based.
A short description of data set [15]: Cell cycle arrest in human PHK160b cells assessed as accumulation at G0/G1 phase at 100 uM incubated for 48 hrs by propidium iodide staining-based flow cytometry. The format is functional.
A short description of data set [16]: Cell cycle arrest in human PHK160b cells assessed as accumulation at G2/M phase at 100 uM incubated for 48 hrs by propidium iodide staining-based flow cytometry. The format is functional.
Data set [17] can be described thus: Cell cycle arrest in human PHK160b cells assessed as increase in expression of p21 at 0 to 100 uM incubated for 72 hrs by RT-PCR method. The format is functional.
The nature of data set [18]: Cell cycle arrest in human PHK160b cells assessed as increase in expression of NOTCH1 at 100 uM incubated for 72 hrs by RT-PCR method relative to control. The format is functional.
For data set [19], the species on record is Homo sapiens. The data set is described as follows: Cell cycle arrest in human PHK160b cells assessed as increase in expression of p21 incubated for 72 hrs by western blot method. The format is functional, cell-based.
For data set [20], the species on record is Homo sapiens. The data set is described as follows: Cell cycle arrest in human PHK160b cells assessed as decrease in expression of cyclin D1 incubated for 72 hrs by western blot method. The format is functional, cell-based.
Data set [21] is filed under the species Homo sapiens. The data set is described as follows: Cell cycle arrest in human PHK160b cells assessed as decrease in expression of cyclin E incubated for 72 hrs by western blot method. The format is functional, cell-based.
The species named for data set [22] is Homo sapiens. The data set is described as follows: Cell cycle arrest in human PHK160b cells assessed as increase in expression of NOTCH 1 at 50 to 100 uM incubated for 72 hrs by western blot method. The format is functional, cell-based.
The species entered for data set [23] is Homo sapiens. Kind of data set: Induction of filaggrin expression in human PHK160b cells incubated for 48 hrs by quantitative RT-PCR analysis relative to untreated control. The format is functional, cell-based.
The nature of data set [24]: Induction of keratin-10 expression in human PHK160b cells at 100 uM incubated for 48 hrs by quantitative RT-PCR analysis relative to untreated control. The format is functional.
Data set [25] is described as follows: Induction of keratin-1 expression in human PHK160b cells at 100 uM incubated for 48 hrs by quantitative RT-PCR analysis relative to untreated control. The format is functional.
The nature of data set [26]: Induction of filaggrin expression in human PHK160b cells at 100 uM incubated for 48 hrs by quantitative RT-PCR analysis relative to untreated control. The format is functional.
Data set [27] is described as follows: Cytotoxicity against human PHK160b cells assessed as reduction in cell growth at 100 uM incubated for 24 to 96 hrs by MTT assay. The format is cell-based.

Regarding `O=C(OC[C@H]1OC[C@H](OC(=O)c2cc(O)c(O)c(O)c2)[C@@H](OC(=O)c2cc(O)c(O)c(O)c2)[C@@H]1OC(=O)c1cc(O)c(O)c(O)c1)c1cc(O)c(O)c(O)c1`, in data set [1], the “fold change (FC)” value is given as 0.64.

On to `O=C(OC[C@H]1OC[C@H](O)[C@@H](O)[C@@H]1OC(=O)c1cc(O)c(O)c(O)c1)c1cc(O)c(O)c(O)c1`, for which the “fold change (FC)” value in data set [2] came to 2.18.

For `COc1cc(C(=O)OC[C@H]2OC[C@H](O)[C@@H](O)[C@@H]2O)cc(OC)c1OC`, the outcome in the data set filed under Homo sapiens [3] was inactive.

`O=C(OC[C@H]1OC[C@H](O)[C@@H](O)[C@@H]1O)c1ccccc1`: the result in the data set listed under Homo sapiens [3] was inactive.

As to `O=C(O[C@H]1CO[C@H](CO)[C@@H](O)[C@@H]1O)c1cc(O)c(O)c(O)c1`, in the data set listed under Homo sapiens [3], the result was Active.

As to `O=C(O[C@H]1[C@H](O)[C@@H](CO)OC[C@@H]1O)c1cc(O)c(O)c(O)c1`, the result in the data set filed under Homo sapiens [3] was Active.

For `O=C(O[C@H]1[C@H](O)[C@@H](O)CO[C@@H]1CO)c1cc(O)c(O)c(O)c1`, the outcome in the data set listed under Homo sapiens [3] was Active.

Take `OC[C@H]1OC[C@H](O)[C@@H](O)[C@@H]1O` [1,5-Anhydrosorbitol]: the outcome in the data set listed under Homo sapiens [3] was inactive. Also, the Activity entry in data set [4] is listed as “Non-Toxic”.

For `COc1cc2c(c(OC)c1OC)-c1ccc(OC)c(=O)cc1[C@@H](NC(C)=O)CC2` [COLCHICINE], the Activity result is “Dose-dependent effect” in [5], “Toxic” in data set [6], 18% in [7] and 74.6% in [8].

On to `O=C(OC[C@H]1OC[C@H](O)[C@@H](O)[C@@H]1O)c1cc(O)c(O)c(O)c1` [GINNALIN B], for which the “fold change (FC)” value is 1.9 in data set [2]; 1.4 in [17]; 1.9 in [18]; 1.7 in data set [24]; 2.9 in [25]; 5.2 in [26]. In addition, the Activity entry in the data set listed under Homo sapiens [9] was “Dose-dependent effect”; in the data set filed under Homo sapiens [10], “Dose-dependent effect”; in the data set on Zone of skin [11] it was 42.4%; with Zone of skin [12], 56.6%; in [13] it was “Non-Toxic”; in [14], “Non-Toxic”. Further, the Activity in data set [15] was 66%; in data set [16], 20%; in the data set filed under Homo sapiens [19] it was “Dose-dependent effect”; in the data set listed under Homo sapiens [20], “Dose-dependent effect”; in the data set filed under Homo sapiens [21] it was “Dose-dependent effect”; in the data set listed under Homo sapiens [23], “Dose-dependent effect”. The figures for the Activity result in data set [27] and in [6] were “Toxic” and “Non-Toxic”, respectively. Also, the outcome in the data set listed under Homo sapiens [22] was Active.

`O=C(O[C@H]1[C@H](O)[C@@H](OC(=O)c2cc(O)c(O)c(O)c2)CO[C@@H]1CO)c1cc(O)c(O)c(O)c1` [MAPLEXIN D]: the “fold change (FC)” value in data set [2] is 2.2.

Source of the values: ChEMBL document CHEMBL4390697, “Ginnalin B induces differentiation markers and modulates the proliferation/differentiation balance via the upregulation of NOTCH1 in human epidermal keratinocytes” (Bioorg Med Chem, 2019).
